The test system of one experiment is ECV-304. As to the kind of experiment: Ratio of ligustrazine EC50 to compound EC50 for human ECV304 cells. Format: functional.
Experiment [1] in a line: Cytoprotective activity in H2O2-induced human ECV304 cells assessed as proliferation rate incubated for 24 hrs prior to H2O2-challenge measured after 12 hrs by MTT assay. Format: functional, cell-based. To be noted: ECV-304. In general terms: Formazan colour is commonly taken as a measure of viable cells.
Experiment [2] is described as follows: Cytoprotective activity in H2O2-induced human ECV304 cells assessed as proliferation rate at 12.5 uM incubated for 24 hrs prior to H2O2-challenge measured after 12 hrs by MTT assay relative to control. It is filed as functional. The settings on record: ECV-304, read-out: Activity.
A short description of experiment [3]: Cytoprotective activity in H2O2-induced human ECV304 cells assessed as proliferation rate at 25 uM incubated for 24 hrs prior to H2O2-challenge measured after 12 hrs by MTT assay relative to control. The settings on record: ECV-304, read-out: Activity. Format: functional.
Experiment [4] can be described thus: Cytoprotective activity in H2O2-induced human ECV304 cells assessed as proliferation rate at 50 uM incubated for 24 hrs prior to H2O2-challenge measured after 12 hrs by MTT assay relative to control. Format: functional. To be noted: ECV-304, read-out: Activity.
A short description of experiment [5]: Cytoprotective activity in H2O2-induced human ECV304 cells assessed as proliferation rate at 100 uM incubated for 24 hrs prior to H2O2-challenge measured after 12 hrs by MTT assay relative to control. To be noted: ECV-304, read-out: Activity. It is filed as functional.
Experiment [6] is described as follows: Antiplatelet activity in rabbit platelet rich plasma assessed as inhibition of ADP-induced aggregation treated for 5 mins prior to ADP-challenge. Format: functional. To be noted: Oryctolagus cuniculus.
Experiment [7] can be described thus: Antiplatelet activity in rabbit platelet rich plasma assessed as inhibition of ADP-induced aggregation at 0.05 mM treated for 5 mins prior to ADP-challenge relative to control. The settings on record: Oryctolagus cuniculus. It is filed as functional.
Experiment [8] in a line: Antiplatelet activity in rabbit platelet rich plasma assessed as inhibition of ADP-induced aggregation at 0.1 mM treated for 5 mins prior to ADP-challenge relative to control. Format: functional. To be noted: Oryctolagus cuniculus.
Experiment [9] can be described thus: Antiplatelet activity in rabbit platelet rich plasma assessed as inhibition of ADP-induced aggregation at 0.4 mM treated for 5 mins prior to ADP-challenge relative to control. It is filed as functional. To be noted: Oryctolagus cuniculus.
A short description of experiment [10]: Antiplatelet activity in rabbit platelet rich plasma assessed as inhibition of ADP-induced aggregation at 0.2 mM treated for 5 mins prior to ADP-challenge relative to control. The settings on record: Oryctolagus cuniculus. Format: functional.

Molecules are shown by their SMILES.

The term EC50 denotes the concentration giving half of the maximal effect. A word on the IC50: it is the concentration that gives 50% inhibition. Broadly, the inhibition is the percentage by which the read-out fell short of the control.

On to `Cc1nc(C)c(COC(=O)CCCC[C@@H]2CCSS2)nc1C`, for which the “Ratio EC50” value in the experiment with ECV-304 was 150. The EC50 in [1] stood at 4 µM. Further, in [2], the growth at 12.5 µM is -60%. Also, the growth at 25 µM in experiment [3] was determined as 71.4%. The growth at 50 µM in [4] amounted to 160%. Further, the growth at 100 µM in experiment [5] was 206%. Further, the IC50 in experiment [6] was more than 2 mM. For the same molecule, in experiment [7], the inhibition at 50 µM is 18.8%. Besides, in experiment [8], the inhibition at 100 µM came to 13.4%. Besides, the inhibition at 400 µM in experiment [9] was found to be 27.6%. The inhibition at 200 µM in [10] is 29%.

As for `CCOC(=O)c1ccccc1OCc1nc(C)c(C)nc1C`, the EC50 in experiment [1] turned out to be 1000 µM. Further, the growth at 12.5 µM in experiment [2] was 17.3%. For the same molecule, the growth at 25 µM in experiment [3] stood at 18.1%. Moreover, the growth at 50 µM in [4] came out at 19.2%. For the same molecule, the growth at 100 µM in experiment [5] was 20%. Also, the IC50 in experiment [6] came to 2 mM. For the same molecule, the inhibition at 50 µM in experiment [7] amounted to 8.7%. Also, the inhibition at 100 µM in experiment [8] was 10.8%. For the same molecule, in experiment [9], the inhibition at 400 µM worked out at 21.2%. For the same molecule, in [10], the inhibition at 200 µM was determined as 16.8%.

The values above are taken from ChEMBL document CHEMBL3132783, “Design, synthesis and biological evaluation of novel ligustrazinylated derivatives as potent cardiovascular agents” (Medchemcomm, 2013).
